Where two headings read alike, the source gives them in different places.
How the values were obtained:
[1] = test system: L. mexicana Cas9^ΔNT1+TcrNT2 promastigotes; experiment: Alamar blue drug sensitivity assay, L. mexicana Cas9^ΔNT1+TcrNT2 promastigotes; type: cell-based, Leishmania mexicana; conditions: Cas9^ΔNT1+TcrNT2 in comparison to L. mexicana Cas9^ΔNT1
Excerpt: (§1) We used L. mexicana promastigotes of the Cas9 strain developed by Beneke at al. to generate the ΔNT1 strain, and from there the Cas9^ΔNT1+TcrNT2 (see below); The original Cas9 strain was generously donated by Prof. Eva Gluenz (University of Bern, Switzerland). All strains in standard HOMEM (GIBCO, Life Technologies, Paisley, UK) supplemented with 10% heat-inactivated fetal bovine serum (FBS; PAA Laboratories, Linz, Austria) and 1% of a penicillin–streptomycin solution (10,000 U mL^−1 each; Life Technologies) at 25 °C, as described.
(§2) The Alamar blue assay (resazurin sodium salt) was used to determine the drug sensitivity of the L. mexicana promastigotes in vitro. The assay is based on the reduction of resazurin sodium salt (blue and non-fluorescent) to resorufin (pink color and fluorescent) by live cells. HOMEM medium with 10% FBS (100 μL) was added to all wells of a white 96-well plate apart from the first well. 200 μL of a known concentration of test compounds was diluted in HOMEM medium and placed in the first well. Compounds were tested in one plate and every compound was diluted over two rows (23 concentrations), leaving the last well of every dilution as a negative control having 100 μL HOMEM medium. Next, 100 μL of L. mexicana culture at a density of 2 × 10^6 cells mL^−1 was added into every well in the plate and incubated for 72 h at a temperature of 25 °C after which resazurin sodium salt (Sigma) (20 μL of a solution of 12.5 mg in 100 mL PBS) was added and the plate was incubated under the same conditions for a further 48 h. Fluorescence was measured in a FLUOstar OPTIMA plate reader (BMG Labtech, Germany), at a wavelength of 544 nm for excitation and 620 nm for emission. The EC50 values and fluorescence data were determined and plotted by the GraphPad Prism 8 Software using an equation for a sigmoid curve with variable slope. Pentamidine was used as positive control and every experiment was performed 3–4 times independently.

[2] = test system: L. mexicana Cas9 promastigotes; experiment: Alamar blue drug sensitivity assay, L. mexicana Cas9 promastigotes; type: cell-based, Leishmania mexicana; conditions: Leishmania mexicana, 120 h, 72 h + 48 h resazurin, at least 3 independent determinations, read-out: EC50 (µM) AVG ± SEM, Cas9
Excerpt: as §1, §2

[3] = test system: L. mexicana Cas9^ΔNT1 promastigotes; experiment: Alamar blue drug sensitivity assay, L. mexicana Cas9^ΔNT1 promastigotes; type: cell-based, Leishmania mexicana; conditions: EC50 Cas9^ΔNT1 relative to L. mexicana Cas9
Excerpt: as §1, §2

TcrNT2 = TcrNT2 (Trypanosoma cruzi, UniProt Q4DHG0); experiment: Transport of [^3H]-thymidine by TcrNT2 expressed in L. mexicana Cas9^ΔNT1 (Km, inhibition); type: cell-based; conditions: for δ(ΔG°) with respect to ΔG° of thymidine: change in ΔG° relative to thymidine; for δ(ΔG°), pairwise comparison with 2′-deoxyuridine: pairwise comparison vs. 2′-deoxyuridine; for δ(ΔG°), pairwise comparison with uridine: pairwise comparison vs. uridine
Description: These values can be used to calculate the Gibbs free energy of interaction ΔG°, but these experiments cannot distinguish between the test compound being transported or merely binding to the transporter and inhibiting the transit of the [^3H]-thymidine.
Transport assays were conducted with radiolabeled nucleosides [methyl-^3H]-thymidine (20 Ci/mmol; PerkinElmer (Waltham, MA, USA)) and [2,8-^3H]-adenosine (40 Ci/mmol; American Radiolabeled Chemicals (ARC, St-Louis, MO, USA)). Cells were harvested from mid-log phase cultures by centrifugation and washed into an assay buffer (AB) as described, at a density of 1 × 10^8 cells mL^−1. Transport assays were then performed exactly as described previously, using an oil-stop protocol. Briefly, 100 µL of cell suspension (10^7 cells) was mixed with 100 µL of [^3H]-substrate at 2 × final concentration and incubated for a pre-set time prior to the addition of 800 µL of ice-cold AB containing a saturating concentration of unlabeled permeant (usually 1 or 2.5 mM) and immediate centrifugation through an oil layer to separate cells from extracellular radiolabel. The 100 µL of [^3H]-substrate could also contain unlabeled substrate or an inhibitor at 2 × concentration, as appropriate. Next, the microfuge tubes were flash frozen in liquid nitrogen; the tips with the cell pellets cut off and collected in scintillation tubes. Cells were solubilized by incubation in 2% SDS under gentle shaking on a rocking platform prior to the addition of scintillation fluid (Scintilogic U, Lablogic, Sheffield, UK). The tubes stored in the dark overnight before counting in a 300SL Hidex Scintillation Counter (Lablogic).
Michaelis-Menten constants (Km) were calculated by plotting transport rates of [^3H]-substrate against the concentration, using the Michaelis-Menten equation V0 = Vmax([substrate]/([substrate] + Km)) and non-linear regression in GraphPad Prism 8. Inhibition constants (Ki) were calculated using the Cheng-Prusoff equation: Ki = IC50/(1 + (L/Km)), where L represents the radiolabel concentration. The IC50 was obtained by a non-linear regression of the inhibition curve of transport rate versus inhibitor concentration, using an equation for a sigmoid curve with variable slope (GraphPad Prism 8). The Gibbs free energy ΔG° was obtained using the equation ΔG° = −RTln(Ki), in which R is the gas constant and T is the absolute temperature. As discussed previously, these equations apply to competitive rather than non-competitive inhibition. Given that only close analogues of the substrate were used as potential inhibitors and that Hill slopes were consistently close to −1, it is very likely that inhibition was indeed competitive.

[4] = calculated from Km or Ki at 25 °C
[5] = read-out: Ki on the transport of [^3H]-thymidine by TcrNT2
[6] = TcrNT2 in L. mexicana Cas9^ΔNT1, […] [^3H]-thymidine, IC50 converted to Ki (Cheng-Prusoff), read-out: Ki on the transport of [^3H]-thymidine by TcrNT2

Sequence of TcrNT2 (Q4DHG0 entry or part of it): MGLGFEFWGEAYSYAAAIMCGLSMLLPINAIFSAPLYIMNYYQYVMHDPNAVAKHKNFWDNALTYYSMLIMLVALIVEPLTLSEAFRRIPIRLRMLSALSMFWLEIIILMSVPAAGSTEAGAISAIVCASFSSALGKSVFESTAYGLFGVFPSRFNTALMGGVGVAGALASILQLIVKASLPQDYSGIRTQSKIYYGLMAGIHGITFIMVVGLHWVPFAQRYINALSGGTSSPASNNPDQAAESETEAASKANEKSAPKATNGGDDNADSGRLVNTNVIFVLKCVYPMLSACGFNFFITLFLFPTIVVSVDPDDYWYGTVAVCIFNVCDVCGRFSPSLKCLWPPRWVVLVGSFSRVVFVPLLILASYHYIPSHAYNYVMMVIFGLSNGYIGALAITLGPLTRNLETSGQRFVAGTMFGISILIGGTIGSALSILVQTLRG

| SMILES | RF vs. ΔNT1 (resistance factor) [1] | EC50 [2] | RF vs. Cas9 (resistance factor) [3] | other results |
| --- | --- | --- | --- | --- |
| N=C(N)c1ccc(OCCCCCOc2ccc(C(=N)N)cc2)cc1 [Pentamidine] | 1.11 | 0.87 ± 0.104 µM | 1.43 | – |
| Nc1ncnc2c1c(Br)cn2[C@@H]1O[C@H](CO)C[C@H]1O [FH7429-UP] | 2.27 | 8 ± 0.8 µM | 1.17 | – |
| Nc1ncnc2c1cnn2[C@@H]1O[C@H](CO)[C@@H](O)[C@H]1O [JBMAM030, aminopurinol riboside] | 0.94 | 7.81 ± 0.9 µM | 39.8 | – |
| Nc1ncnc2c1c(-c1ccc(Cl)cc1)nn2[C@@H]1O[C@H](CO)[C@@H](O)[C@H]1O [JB602] | – | > 500 µM | – | – |
| Nc1ncnc2c1c(I)cn2[C@@H]1O[C@H](CO)[C@@H](O)[C@H]1O [FH3141] | 7.83 | 1.08 ± 0.202 µM | 13.4 | – |
| Nc1ncnc2c1c(F)cn2[C@@H]1O[C@H](CO)C[C@H]1O [FH8517, 7-F-3′-deoxytubercidin] | 1.28 | 3.18 ± 0.78 µM | 3.93 | – |
| Nc1ncnc2c1c(I)cn2[C@@H]1O[C@H](CO)[C@@H](F)[C@H]1O [JB526, 7-I,3′-F-tubercidin] | 11.6 | ~100 µM | ~0.84 | – |
| Cc1cn([C@H]2C[C@H](O)[C@@H](CO)O2)c(=O)[nH]c1=S [4-thiothymidine] | – | – | – | ΔG° (Gibbs free energy of interaction) (TcrNT2; [4]): -7.58 kcal/mol; Ki (TcrNT2; [5]): 2.79 ± 0.11 µM |
| Cc1cn([C@H]2CC[C@@H](CO)O2)c(=O)[nH]c1=O [3′-deoxythymidine] | – | – | – | ΔG° (Gibbs free energy of interaction) (TcrNT2; [4]): -4.76 kcal/mol; δ(ΔG°) with respect to ΔG° of thymidine (TcrNT2): -4.21 kcal/mol; Ki (TcrNT2; [5]): 322 ± 22.6 µM |
| Nc1ncnc2c1c(C(F)(F)F)cn2[C@@H]1O[C@H](CO)[C@@H](O)[C@H]1O [FH6367, 7-(trifluoromethyl)-tubercidin] | 1.91 | 1.42 ± 0.177 µM | 1.44 | – |
| C#Cc1cn([C@@H]2O[C@H](CO)[C@@H](O)[C@H]2O)c2ncnc(N)c12 [FH3143] | 3.11 | 0.12 ± 0.021 µM | 7.74 | – |
| Nc1ncnc2c1c(-c1ccc(Cl)c(Cl)c1)cn2[C@@H]1O[C@H](CO)C[C@H]1O [FH8513, 7-(3,4-dichlorophenyl)-3′-deoxytubercidin] | 3 | ~100 µM | 0.94 | – |
| CNc1ncnc2c1ccn2[C@@H]1O[C@H](CO)[C@@H](O)[C@H]1O [CL5564] | >5.6 | > 100 µM | – | – |
| Cc1cn([C@H]2C[C@H](O)[C@@H](CO)O2)c(=S)[nH]c1=O [2-thiothymidine] | – | – | – | Ki (TcrNT2): 3.38 ± 0.26 µM; ΔG° (Gibbs free energy of interaction) (TcrNT2): -7.46 kcal/mol |
| Nc1ncnc2c1c(F)cn2[C@@H]1O[C@H](CO)[C@@H](O)[C@H]1O [FH3167, 7-F-tubercidin] | 41.9 | 0.22 ± 0.09 µM | 40.7 | – |
| O=c1[nH]c(=O)n([C@H]2C[C@H](O)[C@@H](CO)O2)cc1I [5-I-2′-deoxyuridine] | – | – | – | Ki (TcrNT2; [6]): 0.19 ± 0.04 µM; ΔG° (Gibbs free energy of interaction) (TcrNT2; [4]): -9.15 kcal/mol; δ(ΔG°), pairwise comparison with 2′-deoxyuridine (TcrNT2): 1.14 kcal/mol; δ(ΔG°), pairwise comparison with 2′-deoxyuridine (TcrNT2; listed as 5-I-2′-dUrd): -1.15 kcal/mol |
| Nc1ncnc2c1c(F)cn2[C@@H]1O[C@H](CO)[C@@H](F)[C@H]1O [JB588, 7-F,3′-F-tubercidin] | 2.15 | 0.51 ± 0.093 µM | 17.3 | – |
| Cc1ncnc2c1c(-c1ccc(Cl)cc1)cn2[C@@H]1O[C@H](CO)[C@@H](O)[C@H]1O [CL4501] | 2.2 | ~100 µM | 0.84 | – |
| Cc1cn([C@H]2C[C@H](O)[C@@H](C)O2)c(=O)[nH]c1=O [5′-deoxythymidine] | – | – | – | ΔG° (Gibbs free energy of interaction) (TcrNT2; [4]): -7.72 kcal/mol; δ(ΔG°) with respect to ΔG° of thymidine (TcrNT2): -1.26 kcal/mol; Ki (TcrNT2; [5]): 2.2 ± 0.03 µM |
| C#Cc1cn([C@@H]2O[C@H](CO)C[C@H]2O)c2ncnc(N)c12 [FH8505] | 1.47 | 47.2 ± 1.47 µM | 1.13 | – |
| Nc1ncnc2c1c(-c1ccccc1)cn2[C@@H]1O[C@H](CO)C[C@H]1O [FH8480] | – | > 500 µM | – | – |
| Cc1cn([C@@H]2O[C@H](CO)[C@@H](O)[C@H]2O)c(=O)[nH]c1=O [5-Me-uridine, 5-methyluridine] | – | – | – | ΔG° (Gibbs free energy of interaction) (TcrNT2; [4]): -6.21 kcal/mol; δ(ΔG°) with respect to ΔG° of thymidine (TcrNT2): -2.77 kcal/mol; δ(ΔG°) with respect to ΔG° of thymidine (TcrNT2; listed as 5-Me-Urd): 2.77 kcal/mol; δ(ΔG°) with respect to ΔG° of thymidine (TcrNT2; listed as 5-methyluridine): 2.765 kcal/mol; δ(ΔG°), pairwise comparison with uridine (TcrNT2): -1.08 kcal/mol; Ki (TcrNT2; [5]): 28 ± 0.4 µM |
| O=c1[nH]c(=O)n([C@@H]2O[C@H](CO)[C@@H](O)[C@H]2O)cc1Br [5-Br-uridine] | – | – | – | Ki (TcrNT2; [6]): 30.1 ± 1.8 µM; ΔG° (Gibbs free energy of interaction) (TcrNT2; [4]): -6.17 kcal/mol; δ(ΔG°) with respect to ΔG° of thymidine (TcrNT2): -2.82 kcal/mol; δ(ΔG°), pairwise comparison with uridine (TcrNT2): -1.03 kcal/mol |
| Nc1ncnc2c1c(Br)nn2[C@@H]1O[C@H](CO)[C@@H](O)[C@H]1O [JBMAM021] | 0.97 | 3.8 ± 0.66 µM | 79.9 | – |
| C[C@H]1O[C@@H](n2ccc(=O)[nH]c2=O)[C@H](O)[C@@H]1O [5′-deoxyuridine] | – | – | – | δ(ΔG°), pairwise comparison with uridine (TcrNT2): -1.05 kcal/mol; Ki (TcrNT2; [5]): 1020 ± 57 µM |

— paper PMC9693223 (Molecules, 2022)
